Values of other authors as cited in article PMC6958422 (Pharmaceuticals, 2019).

Key:
[1] = target: T1, hA2B AR (Homo sapiens, UniProt P29275); details: at 1µM, in comparison with NECA (1µM = 100%); cited from earlier work
T1 construct: expressed in transfected cells; host or cells: CHO cells
T1 sequence (P29275 1-332): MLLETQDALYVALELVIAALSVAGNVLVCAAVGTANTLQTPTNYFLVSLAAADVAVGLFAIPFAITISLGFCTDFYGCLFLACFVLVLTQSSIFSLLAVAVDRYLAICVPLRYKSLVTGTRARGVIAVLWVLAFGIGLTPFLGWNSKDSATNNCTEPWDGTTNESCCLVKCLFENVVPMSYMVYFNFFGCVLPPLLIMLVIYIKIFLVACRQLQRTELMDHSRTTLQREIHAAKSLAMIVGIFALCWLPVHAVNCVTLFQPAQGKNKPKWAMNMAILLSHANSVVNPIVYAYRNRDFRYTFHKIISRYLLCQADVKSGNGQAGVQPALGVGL

[2] = tested on: A2BAR; design: method as in PMID 31132418; details: rat CA1 hippocampus, cited from earlier work

| SMILES | Efficacy hA2B (cAMP assays) [1] [%] | Effect on PPF (paired pulse facilitation) [2] | Effect on A1AR-mediated fEPSP inhibition during OGD ([2]; two-minute oxygen and glucose deprivation insult) |
| --- | --- | --- | --- |
| N#Cc1c(N)nc(SCc2ncc[nH]2)c(C#N)c1-c1ccc(OCC2CC2)cc1 [Compound P453, 2-{[(1H-imidazol-2-yl)methyl]thio}-6-amino-4-[4-(cyclopropylmethoxy)phenyl]pyridine-3,5-dicarbonitrile] | 70 | decreases PPF | delays A1AR-mediated fEPSP inhibition |
| CCOc1ccc(-c2c(C#N)c(N)nc(SCc3ncc[nH]3)c2C#N)cc1 [Compound 5, 2-(((1H-Imidazol-2-yl)methyl)thio)-6-amino-4-(4-ethoxyphenyl)pyridine-3,5-dicarbonitrile] | 62 | – | – |
